Test results from ChEMBL document CHEMBL5537159, “Discovery and SAR of JTE-151: A Novel RORγ Inhibitor for Clinical Development” (J Med Chem, 2024).
Calls of active or inactive are those of the source. The rule behind the calls is not given here.

Assays:
[1] = Total body clearance in cynomolgus monkey at 1 mg/kg, iv administered as single dose and measured after 24 hrs; assay type: ADME, organism-based, Macaca fascicularis; conditions: in vivo
[2] = AUCinfinity in Beagle dog at 3 mg/kg, po administered as single dose and measured after 24 hrs; assay type: ADME, organism-based, Canis lupus familiaris; conditions: in vivo
[3] = Toxicity in Sprague-Dawley rat assessed as development-limiting toxicity at 30 to 300 mg/kg, po administered once daily and measured on day 1,14 and 27; assay type: organism-based; conditions: in vivo, 648 h, dose 30-300 mg/kg, time 27 day
[4] = target: GABA-A receptor; anion channel; assay: Inhibition of rat GABA-A receptor; assay type: protein-complex assay
[5] = AUClast in human at 600 mg/kg, po administered as single dose and measured upto 144 hrs; assay type: ADME, organism-based; conditions: in vivo
[6] = Genotoxicity in Salmonella typhimurium TA98 at 23 to 750 ug in absence of S9 fraction by bacterial reverse mutation test; assay type: toxicity, Salmonella enterica subsp. enterica serovar Typhimurium; conditions: in vivo; dose 23-750 µg
[7] = Selectivity ratio of antagonist activity at human RORalpha to inhibition of RORgamma (unknown origin)
[8] = Elimination half life in human at 400 mg/kg, po administered as single dose and measured upto 144 hrs; assay type: ADME, organism-based; conditions: in vivo, read-out: beta t1/2 (converted)
[9] = target: Adrenergic receptor alpha-2 (Rattus norvegicus, UniProt P22086+P19328+P22909); assay: Inhibition of rat adrenergic alpha2 receptor; assay type: protein assay
[10] = Inhibition of rat K+ ATP channel
[11] = target: Beta-1 adrenergic receptor (Homo sapiens, UniProt P08588); assay: Inhibition of human adrenergic beta1 receptor
[12] = Inhibition of rat opioid receptor
[13] = Inhibition of human nicotinic receptor
[14] = Volume of distribution at steady state in cynomolgus monkey at 1 mg/kg, iv administered as single dose and measured after 24 hrs; assay type: ADME, organism-based, Macaca fascicularis; conditions: in vivo, read-out: Vdss
[15] = target: T1, Nuclear receptor ROR-gamma (Homo sapiens, UniProt P51449); assay: Inhibition of GAL4 DNA-binding domain fused RORgamma (unknown origin) transfected in CHO-K1 cells incubated for 2 days by luciferase assay; assay type: cell-based
T1 sequence (P51449 whole entry): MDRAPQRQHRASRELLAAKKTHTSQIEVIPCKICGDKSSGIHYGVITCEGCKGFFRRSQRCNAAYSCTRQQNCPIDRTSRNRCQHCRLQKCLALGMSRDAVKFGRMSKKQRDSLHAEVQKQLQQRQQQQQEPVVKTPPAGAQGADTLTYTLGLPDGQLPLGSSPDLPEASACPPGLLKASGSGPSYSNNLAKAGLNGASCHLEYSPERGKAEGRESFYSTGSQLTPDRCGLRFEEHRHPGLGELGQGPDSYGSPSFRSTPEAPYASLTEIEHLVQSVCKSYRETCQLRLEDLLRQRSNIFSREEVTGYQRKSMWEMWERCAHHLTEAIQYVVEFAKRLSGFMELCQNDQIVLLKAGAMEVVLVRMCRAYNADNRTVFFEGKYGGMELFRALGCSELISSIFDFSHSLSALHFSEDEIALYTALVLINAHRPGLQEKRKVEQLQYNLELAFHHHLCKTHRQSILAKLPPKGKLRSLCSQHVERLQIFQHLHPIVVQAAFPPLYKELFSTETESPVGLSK

[16] = Tmax in human at 60 […], po administered as single dose and measured upto 144 hrs; assay type: ADME, organism-based; conditions: in vivo
[17] = Cmax in human at 600 […], po administered as single dose and measured upto 144 hrs; assay type: ADME, organism-based; conditions: in vivo
[18] = Apparent permeability in human Caco-2 cells at 25 umol/L incubated for 2 hrs by LC/MS/MS analysis; assay type: ADME, cell-based; conditions: dose 25 µmol/L
[19] = AUCinfinity in CD(SD) rat at 10 mg/kg, po administered as single dose and measured after 24 hrs; assay type: ADME, organism-based; conditions: in vivo
[20] = target: Amine oxidase [flavin-containing] B (Homo sapiens, UniProt P27338); assay: Inhibition of human MAO-B
Cytochrome P450 3A5 = Cytochrome P450 3A5 (Homo sapiens, UniProt P20815); assay: Inhibition of CYP3A5 in human liver microsomes using testosterone as substrate; assay type: ADME, Microsome
[21] = Elimination half life in human at 1600 mg/kg, po administered as single dose and measured upto 144 hrs; assay type: ADME, organism-based; conditions: in vivo, read-out: beta t1/2 (converted)
[22] = Selectivity ratio of antagonist activity at human RARalpha to inhibition of RORgamma (unknown origin)
[23] = Cmax in human at 1000 […], po administered as single dose and measured upto 144 hrs; assay type: ADME, organism-based; conditions: in vivo
[24] = Selectivity ratio of antagonist activity at human RXRalpha to inhibition of RORgamma (unknown origin)
[25] = Selectivity ratio of agonist activity at human AR to inhibition of RORgamma (unknown origin)
[26] = Selectivity ratio of agonist activity at mouse GR to inhibition of RORgamma (unknown origin)
[27] = target: 5-hydroxytryptamine receptor 1A (Homo sapiens, UniProt P08908); assay: Inhibition of human 5-HT1A receptor
Cytochrome P450 2B6 = Cytochrome P450 2B6 (Homo sapiens, UniProt P20813); assay: Inhibition of CYP2B6 in human liver microsomes; assay type: ADME, Microsome
[28] = Elimination half life in human at 60 mg/kg, po administered as single dose and measured upto 144 hrs; assay type: ADME, organism-based; conditions: in vivo, read-out: beta t1/2 (converted)
Histamine H3 receptor = Histamine H3 receptor (Homo sapiens, UniProt Q9Y5N1); assay: Inhibition of human histamine H3 receptor
[29] = MRT in CD(SD) rat at 10 mg/kg, po administered as single dose and measured after 24 hrs; assay type: ADME, organism-based; conditions: in vivo
[30] = Elimination half life in cynomolgus monkey at 1 mg/kg, iv administered as single dose and measured after 24 hrs; assay type: ADME, organism-based, Macaca fascicularis; conditions: in vivo, read-out: beta t1/2 (converted)
[31] = Oral bioavailability in CD(SD) rat at 10 mg/kg administered as single dose and measured after 24 hrs; assay type: ADME, organism-based; conditions: in vivo
Mus musculus = assay: Anti-inflammatory activity in complete Freund's adjuvant/MOG (35 to 55 residues)/pertussis toxin-induced experimental autoimmune encephalomyelitis C57BL/6 mouse model assessed as reduction in paralysis by measuring reduction in EAE clinical score at 3 to 10 mg/kg, po administered once daily for 17 days and measured on day 18; assay type: functional, organism-based; conditions: dose 3-10 mg/kg, time 18.0 day
[32] = Volume of distribution at steady state in C57BL/6J mouse at 1 mg/kg, iv administered as single dose and measured after 24 hrs; assay type: ADME, organism-based; conditions: in vivo, read-out: Vdss
[33] = Selectivity ratio of agonist activity at human VDR to inhibition of RORgamma (unknown origin)
[34] = Tmax in human at 30 […], po administered as single dose and measured upto 144 hrs; assay type: ADME, organism-based; conditions: in vivo
[35] = Cmax in human at 100 […], po administered as single dose and measured upto 144 hrs; assay type: ADME, organism-based; conditions: in vivo
Cytochrome P450 2D6 = Cytochrome P450 2D6 (Homo sapiens, UniProt P10635); assay: Inhibition of CYP2D6 in human liver microsomes; assay type: ADME, Microsome
Cytochrome P450 2C9 = Cytochrome P450 2C9 (Homo sapiens, UniProt P11712); assay: Inhibition of CYP2C9 in human liver microsomes; assay type: ADME, Microsome
[36] = Elimination half life in human at 1000 mg/kg, po administered as single dose and measured upto 144 hrs; assay type: ADME, organism-based; conditions: in vivo, read-out: beta t1/2 (converted)

Chain of Cytochrome P450 2B6 (P20813 whole entry): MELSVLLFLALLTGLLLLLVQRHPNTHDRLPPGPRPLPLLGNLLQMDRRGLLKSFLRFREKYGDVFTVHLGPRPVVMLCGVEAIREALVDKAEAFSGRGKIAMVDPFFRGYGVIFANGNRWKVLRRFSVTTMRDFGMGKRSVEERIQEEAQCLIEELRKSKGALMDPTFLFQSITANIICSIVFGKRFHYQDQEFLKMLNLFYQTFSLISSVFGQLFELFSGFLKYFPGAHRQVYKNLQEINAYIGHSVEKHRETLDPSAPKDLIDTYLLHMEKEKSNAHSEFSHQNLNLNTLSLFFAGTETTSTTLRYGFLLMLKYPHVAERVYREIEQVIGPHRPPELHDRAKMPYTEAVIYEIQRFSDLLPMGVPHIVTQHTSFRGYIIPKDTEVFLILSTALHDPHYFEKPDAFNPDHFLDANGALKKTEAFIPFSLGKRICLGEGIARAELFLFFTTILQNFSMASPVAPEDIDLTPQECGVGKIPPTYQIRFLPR
Chain of Amine oxidase [flavin-containing] B (P27338 whole entry): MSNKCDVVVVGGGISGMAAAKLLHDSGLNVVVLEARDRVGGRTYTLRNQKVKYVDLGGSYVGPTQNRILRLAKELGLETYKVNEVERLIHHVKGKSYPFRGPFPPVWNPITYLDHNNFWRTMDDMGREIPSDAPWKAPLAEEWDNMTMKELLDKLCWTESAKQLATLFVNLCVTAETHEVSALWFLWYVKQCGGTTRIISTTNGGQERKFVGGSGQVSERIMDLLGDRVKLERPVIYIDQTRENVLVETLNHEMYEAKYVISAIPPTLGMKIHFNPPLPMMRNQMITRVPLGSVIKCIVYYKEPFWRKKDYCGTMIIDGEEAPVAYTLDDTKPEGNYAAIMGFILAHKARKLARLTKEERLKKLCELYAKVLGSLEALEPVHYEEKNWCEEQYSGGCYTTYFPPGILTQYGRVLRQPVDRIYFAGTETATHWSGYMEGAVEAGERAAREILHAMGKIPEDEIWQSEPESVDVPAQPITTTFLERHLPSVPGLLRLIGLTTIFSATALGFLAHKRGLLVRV
Chain of Histamine H3 receptor (Q9Y5N1 whole entry): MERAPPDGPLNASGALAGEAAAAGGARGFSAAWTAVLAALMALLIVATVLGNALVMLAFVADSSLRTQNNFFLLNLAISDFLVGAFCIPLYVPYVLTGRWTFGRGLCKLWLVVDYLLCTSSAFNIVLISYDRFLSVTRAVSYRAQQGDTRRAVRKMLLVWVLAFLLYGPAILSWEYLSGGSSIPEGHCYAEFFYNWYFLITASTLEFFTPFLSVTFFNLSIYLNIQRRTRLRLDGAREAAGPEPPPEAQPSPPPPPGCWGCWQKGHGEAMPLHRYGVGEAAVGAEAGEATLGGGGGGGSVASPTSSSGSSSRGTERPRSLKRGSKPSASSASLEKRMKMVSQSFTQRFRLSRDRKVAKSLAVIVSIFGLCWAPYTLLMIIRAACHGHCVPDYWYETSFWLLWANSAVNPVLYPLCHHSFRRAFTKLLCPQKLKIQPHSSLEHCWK
Chain of 5-hydroxytryptamine receptor 1A (P08908 whole entry): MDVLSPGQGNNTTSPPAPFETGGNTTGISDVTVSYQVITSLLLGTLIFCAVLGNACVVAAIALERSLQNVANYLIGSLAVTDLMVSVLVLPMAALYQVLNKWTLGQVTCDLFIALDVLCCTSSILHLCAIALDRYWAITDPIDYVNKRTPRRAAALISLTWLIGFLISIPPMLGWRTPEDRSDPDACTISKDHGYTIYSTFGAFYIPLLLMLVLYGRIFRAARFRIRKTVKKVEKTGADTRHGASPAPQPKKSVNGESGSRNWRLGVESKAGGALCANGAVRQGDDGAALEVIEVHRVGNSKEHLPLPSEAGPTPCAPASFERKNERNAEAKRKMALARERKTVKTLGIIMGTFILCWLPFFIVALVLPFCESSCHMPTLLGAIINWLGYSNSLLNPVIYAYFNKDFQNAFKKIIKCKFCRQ
Chain of Cytochrome P450 3A5 (P20815 whole entry): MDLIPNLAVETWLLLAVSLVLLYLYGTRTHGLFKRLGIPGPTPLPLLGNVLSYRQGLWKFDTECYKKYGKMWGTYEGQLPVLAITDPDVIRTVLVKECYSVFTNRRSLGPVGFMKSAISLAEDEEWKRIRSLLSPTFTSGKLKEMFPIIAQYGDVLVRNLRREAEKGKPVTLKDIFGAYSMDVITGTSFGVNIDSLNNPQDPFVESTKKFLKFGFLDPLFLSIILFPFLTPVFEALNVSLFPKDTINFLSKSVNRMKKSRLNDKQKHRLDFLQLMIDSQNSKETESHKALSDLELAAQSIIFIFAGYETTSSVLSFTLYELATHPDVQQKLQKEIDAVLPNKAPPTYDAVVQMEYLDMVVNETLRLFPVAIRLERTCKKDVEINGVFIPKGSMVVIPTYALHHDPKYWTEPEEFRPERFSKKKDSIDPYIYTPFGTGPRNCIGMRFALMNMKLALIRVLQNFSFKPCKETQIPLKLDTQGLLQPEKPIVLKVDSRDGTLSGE
Chain of Beta-1 adrenergic receptor (P08588 whole entry): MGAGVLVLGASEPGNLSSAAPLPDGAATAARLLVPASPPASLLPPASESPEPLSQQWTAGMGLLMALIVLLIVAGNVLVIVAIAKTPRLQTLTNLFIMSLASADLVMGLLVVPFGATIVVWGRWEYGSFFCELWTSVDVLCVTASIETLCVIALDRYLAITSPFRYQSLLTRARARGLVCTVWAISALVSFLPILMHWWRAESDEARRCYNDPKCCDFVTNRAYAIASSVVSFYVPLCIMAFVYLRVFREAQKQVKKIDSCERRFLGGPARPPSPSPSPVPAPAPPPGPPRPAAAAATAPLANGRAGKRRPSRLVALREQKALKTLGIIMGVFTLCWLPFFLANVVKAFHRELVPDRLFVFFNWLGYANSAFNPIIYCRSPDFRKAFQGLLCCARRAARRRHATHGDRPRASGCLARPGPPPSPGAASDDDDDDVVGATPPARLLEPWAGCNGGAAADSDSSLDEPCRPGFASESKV
Chain of Cytochrome P450 2D6 (P10635 whole entry): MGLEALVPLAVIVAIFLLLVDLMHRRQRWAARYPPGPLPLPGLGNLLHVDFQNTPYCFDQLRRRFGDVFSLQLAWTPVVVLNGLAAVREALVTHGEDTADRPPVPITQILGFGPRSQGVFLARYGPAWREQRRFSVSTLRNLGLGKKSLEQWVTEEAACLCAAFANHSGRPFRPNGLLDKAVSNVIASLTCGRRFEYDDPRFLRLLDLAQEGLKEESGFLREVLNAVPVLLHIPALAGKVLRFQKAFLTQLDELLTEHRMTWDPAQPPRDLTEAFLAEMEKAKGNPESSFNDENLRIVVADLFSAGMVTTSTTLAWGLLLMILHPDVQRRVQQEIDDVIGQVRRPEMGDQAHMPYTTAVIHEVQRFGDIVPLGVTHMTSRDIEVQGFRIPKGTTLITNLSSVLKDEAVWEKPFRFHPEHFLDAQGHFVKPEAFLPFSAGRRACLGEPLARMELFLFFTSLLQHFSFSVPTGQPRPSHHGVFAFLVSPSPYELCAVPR
Chain of Cytochrome P450 2C9 (P11712 whole entry): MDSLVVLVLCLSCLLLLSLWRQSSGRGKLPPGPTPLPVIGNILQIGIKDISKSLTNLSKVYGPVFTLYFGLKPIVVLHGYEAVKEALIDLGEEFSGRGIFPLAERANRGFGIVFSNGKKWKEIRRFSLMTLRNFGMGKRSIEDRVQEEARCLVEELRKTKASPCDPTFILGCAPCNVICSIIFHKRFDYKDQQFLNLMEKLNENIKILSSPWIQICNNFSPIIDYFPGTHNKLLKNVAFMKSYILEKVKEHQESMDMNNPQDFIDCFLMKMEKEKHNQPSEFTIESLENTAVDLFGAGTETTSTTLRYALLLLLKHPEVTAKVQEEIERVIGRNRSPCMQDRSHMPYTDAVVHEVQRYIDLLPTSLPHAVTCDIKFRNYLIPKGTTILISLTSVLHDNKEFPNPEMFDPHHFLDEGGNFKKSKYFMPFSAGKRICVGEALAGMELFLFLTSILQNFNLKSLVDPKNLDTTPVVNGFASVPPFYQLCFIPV

SMILES: Cc1ccc(NC(=O)C[C@H](CCC(=O)O)c2noc([C@H]3C[C@@H](CC(C)(C)C)C3)c2C2CC2)c(Cl)c1
- clearance [1]: 3.17 mL/min/kg
- AUC(0-inf) [2]: 118 µM·h
- Activity [3]: Non-Toxic
- IC50 [4]: > 10 µM
- AUC(0-t) at 144 h [5]: 140 µg·h/mL
- Activity [6]: Non-Toxic
- Selectivity ratio [7]: > 100
- half-life [8]: 7.42 h
- IC50 [9]: > 10 µM
- IC50 [10]: > 10 µM
- IC50 [11]: > 10 µM
- IC50 [12]: > 10 µM
- IC50 [13]: > 10 µM
- Vd [14]: 0.36 L/kg
- EC50 [15]: 0.013 µM
- Tmax [16]: 4 h
- Cmax [17]: 26400 ng/mL
- Papp at 2 h, 25 µM [18]: 22.3 ×10⁻⁶ cm/s
- AUC(0-inf) [19]: 191 µM·h
- IC50 [20]: > 10 µM
- IC50 (Cytochrome P450 3A5): > 10 µM
- half-life [21]: 10.7 h
- Selectivity ratio [22]: > 100
- Cmax [23]: 38100 ng/mL
- Selectivity ratio [24]: > 100
- Selectivity ratio [25]: > 100
- Selectivity ratio [26]: > 100
- IC50 [27]: > 10 µM
- IC50 (Cytochrome P450 2B6): > 10 µM
- half-life [28]: 5.49 h
- IC50 (Histamine H3 receptor): > 10 µM
- MRT [29]: 5.6 h
- half-life [30]: 5.9 h
- bioavailability [31]: 106%
- Activity (Mus musculus): Active
- Vd [32]: 0.16 L/kg
- Selectivity ratio [33]: > 100
- Tmax [34]: 2.77 h
- Cmax [35]: 3810 ng/mL
- IC50 (Cytochrome P450 2D6): > 10 µM
- IC50 (Cytochrome P450 2C9): > 10 µM
- half-life [36]: 7.91 h
